In the case of `CC(C)(C)C(=O)CC(=O)NC1CCCCC1`, the melting point lay in the range of 69 to 70 °C. With `CCOC(=O)COc1cc(OC)c2c(c1)OC1(CCCC1)CC2=O` the figure was 81 to 82 °C. With `Cn1cc(-c2cc3cccnc3[nH]2)c2ccc(C(=O)NC(CO)CO)cc21` the figure was 247 to 249 °C; with `Cc1cn(C(C)(C)C(=O)Nc2ccccc2)nc1-c1ccccc1`, 116 to 119 °C; with `CC(=O)SCC(C(=O)Nc1cccc(O)c1)C(F)(F)F` (stereo unspecified), 148 to 149 °C.

Regarding `CC(C)(C)OC(=O)C(N)c1ccc(C(=O)O)cc1[N+](=O)[O-]` (stereo unspecified), the melting point lay within 124 to 126 °C. For `CC(=O)Oc1cccc(C2(N(C)C)CCC(=O)CC2)c1` the value was 51 to 53 °C; for `Cc1cc(C)cc(C=CC#N)c1`, 67 to 68 °C. For `O=[N+]([O-])c1ccc(OCC=CCBr)c([N+](=O)[O-])c1` the value was 55 to 57 °C. The molecule `CC(C)=CCc1c(C)c(C)c(O)c(C)c1C` gave a melting point of 105 to 106 °C. For `CC(C)Cc1nc2ccc(C(c3cccc(Cl)c3)n3ccnc3)cc2[nH]c1=O` (stereo unspecified) the value was 215 °C; for `O=C(O)Cc1cccc(Oc2ccccc2Cl)c1[N+](=O)[O-]`, 162 to 164 °C; for `CCOCc1nc2c(N)nc(C)c(C)c2n1CCCN`, 127 °C.

For the molecule `C#CC1(O)C(C)CC2C3CCC4=CC(=O)CCC4(C)C3CCC21C` (stereo unspecified), the melting point was greater than 230 °C. Regarding `Cc1ccc2c(c1)C(=O)c1ccc(C(=O)O)cc1S2(=O)=O`, the melting point is 357 °C. In turn, `Cc1nc(-c2ccccc2)cc(-c2cccc([N+](=O)[O-])c2)c1CO` showed a melting point of 209 to 214 °C.

`Cc1cc(C2=NN(C(=S)NN)[C@H](C)Cc3cc4c(cc32)OCO4)ccc1[N+](=O)[O-]` came in with a melting point of 109 to 115 °C. For the molecule `O=C1c2ccc(F)cc2C(=O)c2cc3cc(F)ccc3cc21`, the melting point was in the range of 251 to 253 °C. Take `CCCc1c(O)c(C(C)=O)c(C)c2c1OC(C)(C)CC2C` (stereo unspecified): the melting point lay in the range of 74 to 75 °C. `COC(=O)c1ccc(Cn2nnc3ccc(NC(=O)CC4CCCC4)cc32)c(OC)c1` registered a melting point of 206 to 208 °C. Molecule `Cc1cccc(OCC(=O)N[C@@H](Cc2ccccc2)C(=O)CSCc2ccco2)c1` came in with a melting point of 76 to 78 °C. For `CCOC(=O)c1ccc(NCCCc2ccc(OCc3ccccc3)cc2)cc1` the value was 98 to 107 °C; for `C=CCOCc1ccc(-c2ncccc2S(=O)(=O)Nc2ncc(C)nc2OC)cc1`, 72 to 76 °C. With `CCn1nc(Br)c([N+](=O)[O-])c1CCN` the figure was 84.9 to 87.4 °C.

In turn, `Cn1cc(C2=C(c3cccc(NC4COC(C)(C)OC4)c3)C(=O)NC2=O)c2ccccc21` displayed a melting point of 201 to 203 °C.

Consider `COc1ccc(-n2c(-c3cc(-c4ccc(Cl)cc4)c(N4CCOCC4)s3)nc3ccccc3c2=O)cc1`, for which the melting point fell in the range of 217 to 218 °C. With `N#CC(=C(O)C1CCN(Cc2ccccc2)CC1)c1ccccc1` the figure was 192 °C. For `N#Cc1ccc(N(N)Cc2ccc(Br)cc2)cc1` the value was 90 °C; for `Cc1sc(-c2ccc(C(F)(F)F)cc2)nc1CCOc1ccc(CCC(=O)O)cc1`, 142 to 147 °C; for `Oc1ccc(CCc2cccc(O)c2)cc1`, 108 °C. With `Nc1cc(Cl)c(NCCO)cc1[N+](=O)[O-]` the figure was 130 to 131 °C; with `CNc1cc(N(C)S(=O)(=O)c2ccc(N)cc2)nc(NC)n1`, 79 to 80 °C; with `BrC1COCOCC1Br` (stereo unspecified), 37 °C.

Molecule `Cc1cc(CBr)cc(CBr)c1` registered a melting point of 65 to 66 °C. `CCOC(=O)N1CCN(C(=O)Oc2ccc([N+](=O)[O-])cc2)CC1`: the melting point was 125 to 128 °C.

Consider `N=C(N)N1CCC(CC(=O)O)CC1`, for which the melting point was greater than 310 °C.

`Cc1cc(Cl)nnc1-c1cccc([N+](=O)[O-])c1` registered a melting point of 169 to 171 °C. Regarding `O=C(O)CCSc1cccc(Br)c1`, the melting point was in the range of 87 to 88 °C. Regarding `CCOC(=O)c1c[nH]c2c(C)csc2c1=O`, the melting point lay in the range of 238 to 242 °C. `Nc1cc(F)c(Cl)c(F)c1N` showed a melting point of 77 to 78 °C. `O=c1c2n[nH]c3ccc(Cl)cc3c-2nn1-c1ccccc1` came in with a melting point greater than 280 °C. In the case of `COc1cc(OC)c(NC(=O)NC2(c3ccccc3)CCCC2)c(OC)c1`, the melting point lay in the range of 193 to 195 °C. In turn, `CCOc1ccc(C2SC(=N)NC2=N)cc1OCC` (stereo unspecified) yielded a melting point of 185 to 190 °C. As to `CCCCCCC(C(C)O)n1cnc(C(N)=O)c1N` (stereo unspecified), the melting point is 159 to 160 °C. With `CN1C(=O)C2(COc3cc4c(cc32)OCO4)c2c(Br)cccc21` (stereo unspecified) the figure was 155 to 157 °C. For `Cc1c(-c2ccc(O)cc2)n(Cc2ccc(OCCN3C[C@@H]4CC[C@H]3C4)cc2)c2ccc(O)cc12` the value was 125 to 130 °C. With `OC1CCC2(CC1)CCC(CCc1ccoc1)CC2` (stereo unspecified) the figure was 66 to 69 °C; with `O=C(NCc1nccs1)c1cc(N2CCN(Cc3ccc(F)cc3)C2=O)n[nH]1`, 272 to 274 °C; with `SC1=Nc2ccccc2SN1`, 198 to 199 °C. In the case of `O=S(=O)(Cc1ccccc1)N1CCC[C@H]1C(=S)OCCCc1ccccc1`, the melting point fell in the range of 62 to 64 °C. For the molecule `Cc1ccc(C(=O)Cn2c3c(sc2=O)CCCC3)cc1`, the melting point was in the range of 108 to 110 °C. `COc1ccc(-c2nc(S(=O)(=O)C(F)(F)C(F)F)[nH]c2-c2cccs2)cc1` came in with a melting point of 163 to 164 °C. `N#Cc1ccc2c(c1)-c1ccccc1OP2(=O)O` returned a melting point of 240 °C.

As for `O=C(Cc1ccc(Oc2ccc(C(F)(F)F)cn2)cc1)Nc1ccncc1`, the melting point lay in the range of 167 to 170 °C. `Cc1ccc(S(=O)(=O)NN=C2CCCCCCC2)cc1` had a melting point of 140 to 143 °C.

For `CC(SCc1cc2cc(C(F)(F)F)ccc2n1S(=O)(=O)c1ccccc1)C(=O)O` (stereo unspecified), the melting point is 120 °C. For `O=c1c(-c2ccccc2)coc2cc(O)c(Cl)c(Cl)c12` the value was greater than 290 °C. With `O=C(OC1C(=O)NC1c1ccccc1)c1ccccc1` (stereo unspecified) the figure was 118 to 119 °C; with `Cc1ccc(-c2ccc(-c3ccc(C)cc3)n2-c2ccc(O)cc2)cc1`, 221 to 222 °C.

In turn, `OCCNCC(O)c1cccc(OCc2ccccc2)c1` (stereo unspecified) displayed a melting point of 114 °C. With `CSc1cc(S(F)(F)(F)(F)F)ccc1C(=O)O` the figure was 150 to 152 °C. With `Clc1ccc2nc(-c3ccc(Cl)s3)cn2n1` the figure was 226 to 230 °C.

`CCCOc1nccc2c1C(c1ccccc1C(F)(F)F)C(C(=O)OCC)=C(C)N2` (stereo unspecified) registered a melting point of 115 to 117 °C. With `CCOC(=O)c1cc(-c2ccncc2)[nH]c1N` the figure was 193 to 195 °C. Consider `O=C(O)c1ccc2sc(Cc3cccnc3)cc2c1`, for which the melting point was in the range of 246 to 249 °C.

In turn, `CCOC(=O)CC(Nc1ccccc1)c1ccccc1` (racemic) gave a melting point of 87 °C. With `COc1ccc(OC)c2c1C=CNC(=O)C2` the figure was 188 to 191 °C; with `CCOC(=O)Cc1coc2c(OC)ccc(C(=O)Cc3ccncc3)c12`, 111 to 117 °C; with `CC1(C)OC(C=Cc2cccs2)=CC1=O`, 75 to 77 °C. `COCCNc1ccc2ncnc(Nc3ccc(F)c(Cl)c3)c2c1` returned a melting point of 152 to 154 °C.

`CC1=C(C)C(=O)C(C(CCCCCCC(=O)O)c2cccnc2)=C(C)C1=O` (stereo unspecified) returned a melting point of 113 to 114 °C. Molecule `CCn1cc(C(=O)O)c(=O)c2c1SC(=NO)C2` registered a melting point of 332 to 334 °C. For `Cc1cc(C(=O)O)c2[nH]c3c(c2c1)CCCC3` the value was 225 °C; for `Cc1nn(-c2ccc([N+](=O)[O-])cc2F)c(=O)n1C(F)F`, 72 to 77 °C. With `COc1ccc(C2=NN(c3ccc(Br)cc3)C(=O)C(C)(C)C2)cc1OC` the figure was 123 to 124 °C. The molecule `CC1(C)OC(=O)C(C)(N=Nc2ccc(F)cc2Br)C(=O)O1` returned a melting point of 92 to 93 °C. `COc1cccc(CCN2C(=O)c3ccccc3C2(O)c2cccnc2)c1` (stereo unspecified): the melting point stood at 97 °C. The molecule `Oc1cc(-c2ccc(Cl)cc2F)n[nH]1` returned a melting point of 194 °C. With `Cc1ccc2c(c1)[nH]c(=O)n2CCCOS(C)(=O)=O` the figure was 125 °C; with `COc1ccc2c(c1)C(C)CCC2=O` (stereo unspecified), 57.5 to 58.5 °C; with `CC(C)(F)c1nc[nH]c(=O)c1Cl`, 168 to 171 °C. For `Cc1c(-c2ccc(OCC(=O)O)cc2)oc(=O)c(Sc2ccccc2)c1O` the value was 194 to 197 °C; for `Cn1cc(C2=C(n3ccc4ccccc43)C(=O)NC2=O)c2ccccc21`, 235 to 236 °C.

On to `Cc1ccc(-c2c(C(=O)NCc3cc(C(F)(F)F)cc(C(F)(F)F)c3)n(CCCCO)c(=O)c3ncccc23)cc1`, for which the melting point lay in the range of 187 to 188 °C. For `CC(C)C(NC(=O)Cn1c(-c2ccc(F)cc2)ncc(N)c1=O)C(=O)C(F)(F)F` (stereo unspecified) the value was 200 to 203 °C. On to `Cc1cc(Cl)n(-c2ccc(Cl)cc2F)n1`, for which the melting point was 95 to 97 °C. `Cc1sc(-c2ccccc2)nc1CCOc1ccc(N)cn1`: the melting point lay in the range of 89 to 91 °C. Molecule `CCOC(=O)C=Cc1cn(CCCC2(C)OCCO2)c2ccccc12` yielded a melting point of 61 to 62 °C. With `CCOC(=O)Cc1c(C)n(Cc2ccc(SC)cc2)c2ccc(OCc3nc4ccccc4s3)cc12` the figure was 101 to 102 °C; with `O=C1Nc2ccc(Cl)cc2C(c2ccccc2)=NC1OCCc1ccc(O)cc1` (stereo unspecified), 222 to 230 °C. `COc1ccccc1/C(=C/C=C/C(=O)NCCCCc1cccnc1)c1ccccc1`: the melting point fell in the range of 66 to 68 °C.

Molecule `CC(=O)Nc1c(C(=O)c2cccc(Br)c2)[nH]c2cc(Cl)ccc12` showed a melting point of 183 to 184 °C. For `CS(=O)c1nnc(-c2cc(C(C)(C)C)c(O)c(C(C)(C)C)c2)s1` (stereo unspecified) the value was 141 °C. For `O=C(O)Cc1c(C(=O)c2ccc(Cl)cc2)[nH]c2cc(F)ccc12` the value was 214 °C.

In turn, `Cn1nc(-c2ccc(Cl)cc2)c2c(=O)n3c(nc21)SCC3` showed a melting point of 256 to 257 °C. In turn, `CCOC(=O)OC1CCN(C(=O)Cn2c(=O)sc3ccc(Cl)cc32)CC1` yielded a melting point of 196 to 197 °C.

The term melting point denotes the temperature of the solid-liquid transition.

The values above are taken from a melting point compilation (Tetko et al.; mined from patent text by program, amines drawn as free bases though some values may be those of a salt).
